Patent US20260183306A1, “Methods for Treating Respiratory Diseases Characterized by Mucus Hypersecretion” (The Board of Trustees of the Leland Stanford Junior …, priority 2022, published 2026)
“Also recorded” adds a separate entry of the source.

Experiments:
[1] = system: HNEC cultures treated with IL-13; test: IL-13 induced chronic inflammation / mucous metaplasia model in ALI HNEC cultures; assay type: cell-based, human; settings: for percentage of MCCs after IL-13 remodeling / percentage of mucin positive secretory (mucous) cells after IL-13 remodeling: IL-13 ALI+7 to 14, then DAFT (1 um) or semagacestat (125 nm) ALI+14 to 21; for percentage of MCCs in controls without IL-13: no IL-13, DAFT (1 um) or semagacestat (125 nm) days 14-21
Procedure: Administration of IL-13 to ALI cultures induces goblet cell hyperplasia and is a useful model of chronic inflammation. ALI HNEC cultures were prepared as described in Vladar et al. ALI cultures were treated with and without administration of I1-13 on days 7−14. DAFT (1 um), semagacestat (125 nm) or vehicle control were administered on days 14-21. PFA-fixed cultures were stained for Muc5AC (red; mucin producing secretory cells), Acetylated tubulin (green; MCCs) and E-Cadherin (blue to reveal cell boundaries).
HNEC cultures from a CF patient were treated with IL-13 from ALI+7 to 14 to induce inflammation. […] IL-13 treatment increases the percentage of mucin positive secretory cells and decreases the percentage of MCCs.
To test whether GSI treatment has the ability to restore multiciliated cells in remodeled epithelia with fewer than normal multiciliated cells, healthy donor HNECs were treated with the IL-13 pro-inflammatory cytokine to model mucous metaplasia (7,24). IL-13 treatment from ALI+7 to 14d of culture led to the formation of excess mucus secretory cells, identified by MUCSAC labeling, at the expense of multiciliated cells (FIG. 38A). At ALI+14d, the cytokine was withdrawn, and cultures were treated for one week with LY450139, DAPT or DMSO control.
Primary human nasal epithelial cell (HNEC) cultures. […] Primary air-liquid interface (ALI) culture of nasal epithelial cells from passage 0 (P0) or P1 basal stem cells was carried out as previously described (24,30). Briefly, cells are removed from cytobrushes with gentle enzymatic digestion. P0 HNEC cultures are initiated by seeding freshly isolated cells onto Collagen I coated Transwell filters. P1 HNEC cultures are initiated from basal cells that were first expanded on Collagen I coated plastic dishes in proliferation medium supplemented with Y-27632 (ROCK inhibitor, 10 μM), DMH-1 (BMP inhibitor, 1 μM), A-83-01, (TGF-β inhibitor, 1 μM), and CHIR99021 (WNT agonist, 1 μM)(42), all from Selleckchem. HNECs seeded onto Transwells are initially cultured submerged in proliferation medium until confluency, then lifted to ALI (considered as ALI+0d of culture) by supplying differentiation medium only from the bottom compartment. HNECs are considered mature at ALI+21d of culture. Healthy and CF HNECs used in the study were cultured in homemade media (24). CF HNECs used for the Ussing chamber measurements only were cultured in Pneumacult Ex+(proliferation) and Pneumacult ALI (differentiation) media (Stemcell). […] Healthy HNECs were treated with 10 ng/ml recombinant human IL-13 (RnD Systems).

[2] = system: primary human nasal epithelial cells (HNECs); test: Multiciliated cell (MCC) formation in HNEC air-liquid interface (ALI) cultures; assay type: cell-based; settings: for multiciliated cell numbers, treatment during differentiation: differentiation only (ALI+0 to +21d) and continuous (preALI+ALI) treatments; for multiciliated cell formation in mature cultures: mature (ALI+30d) cultures treated one (ALI+30 to +37d) or two weeks (ALI+30 to +44d); for multiciliated cell formation, treatment during proliferation only: pre-ALI only (ALI-5 to -1d)
Procedure: Air-Liquid Interface (ALI) cultures were prepared as described in Vladar E K, Nayak J V, Milla C E, Axelrod J D. Airway epithelial homeostasis and planar cell polarity signaling depend on multiciliated cell differentiation. JCI Insight. 2016; 1(13); e88027. Human nasal epithelial cells (HNECs) were generated from human sinonasal epithelial brushings or from tissue obtained from patients undergoing endoscopic sinus surgery at Stanford Hospital and cultured as described in Vladar et al.
Cultures were treated with varying doses of semagacestat. DAFT (Abcam) was used ([…]) as a positive cone ml for GSI activity. Cultures were labeled at ALI+21 d with anti-acetylated α-tubulin (green) and ECAD (red) antibodies to mark cilia and epithelial junctions. […] The ratio was defined as MCC number/total luminal cells. Counting was done on one representative image from 5 culture replicates from a single donor.
Primary human airway epithelial cells were treated with DAPT and LY45139: i) during proliferation only (ALI-5 to -Id), ii) during differentiation only (ALI+0 to +21d) or iii) continuously during the entire culture duration, followed by labeling at ALI+21d with anti-acetylated α-Tubulin (green) and ECAD (red) antibodies.
Mature (ALI+30d) primary human airway epithelial cells were treated with DAFT and semagacestat for one (ALI+30 to +37d) or two weeks (ALI+30 to +44d), then labeled with anti-acetylated α-Tubulin (green) and ECAD (red) antibodies.
Primary human airway epithelial cells were treated with DAFT and LY45139 during differentiation only (ALI+0 to +21d) from either the apical or basal surface, then labeled at ALI+21d with anti-acetylated α-Tubulin (green) and ECAD (red) antibodies. […] Apical treatment eliminates the air-liquid interface, which results in the poor epithelial structure and multiciliated cell differentiation in the untreated cultures, which is partially rescued by GSI treatment.
While this effect may be beneficial as a therapeutic, DAPT is not suitable for human use. It was sought to identify GSIs for potential therapeutic application among small molecules previously used in clinical trials that were developed to have acceptable drug-like properties. […] Healthy human nasal epithelial cell (HNEC) primary cultures were grown at air-liquid interface (ALI) in homemade culture medium to support the consistent differentiation of multiciliated cells as approximately 45-55% of the luminal cells, similar to the in vivo airways (24) (FIG. 35A, 40A). The use of homemade culture medium is important, as cultures grown in commercially available Pneumacult medium often contain 85-95% multiciliated cells at the luminal surface (FIG. S4A). HNECs were treated with a low and high dose (based on IC50 for Notch inhibition, Selleckchem) of each compound during the entire 21 days of ALI differentiation (ALI+0 to 21d). The fraction of mature multiciliated cells was quantitated using wholemount ac. α-Tubulin antibody (marks ciliary axonemes) labeling. […] DMSO control treatment had no effect on multiciliated cell number (FIG. 40A).
HNEC primary culture comprises an initial proliferative phase when basal stem cells establish the epithelial layer under submerged culture conditions (preALI), followed by differentiation induced, in part, by lifting to ALI (30). Thus, HNECs can be used to test GSI response in both regenerative and homeostatic settings. Notch signaling between luminal cells controls epithelial cell fate, but it is also active in basal cells and regulates their differentiation and survival (14,18,31). Thus, it was asked if the GSIs LY450139 or DAFT during the proliferative preALI phase only or during the entire culture duration (proliferative+differentiation; preALI+ALI) can induce multiciliated cell formation and if GSI treatment during stem cell proliferation has detrimental effects. PreALI, GSIs was added to both the apical and basal media, and during ALI, cultures were only treated basally. […]

Compound	percentage of MCCs after IL-13 remodeling [1]	percentage of mucin positive secretory (mucous) cells after IL-13 remodeling [1]	percentage of MCCs after IL-13 remodeling ([1]; listed as DAFT)	percentage of mucin positive secretory (mucous) cells after IL-13 remodeling ([1]; listed as DAFT)	percentage of MCCs in controls without IL-13 [1]	percentage of MCCs in controls without IL-13 ([1]; listed as DAFT)	multiciliated cell formation by apical versus basal application ([2]; ALI+0 to +21d from either the apical or basal surface, listed as DAFT)	ratio MCC number/total luminal cells ([2]; I μM DAPT, labeled at ALI+21 d, vs untreated, p<0.01 by ANOVA)	number of multiciliated cells, apical only treatment of submerged cultures ([2]; apical only, submerged cultures, vs untreated submerged cells)	multiciliated cell numbers, treatment during differentiation [2]	multiciliated cell numbers, treatment during differentiation ([2]; listed as DAFT)	multiciliated cell formation in mature cultures [2]	multiciliated cell formation in mature cultures ([2]; listed as DAFT)	multiciliated cell formation, treatment during proliferation only ([2]; labeled ALI+21d)	multiciliated cell formation, treatment during proliferation only ([2]; labeled ALI+21d, listed as DAFT)	effect on Notch signaling and differentiation towards MCCs ([2]; administered in the nanomolar range to human nasal epithelial cells)	toxicity / disruption of epithelial structure at high concentration ([2]; high concentration, micromolar doses (10 μM for LY450139), ALI+0 to +21d)	multiciliated cell formation at the low concentration ([2]; low dose (based on IC50 for Notch inhibition), ALI+0 to +21d, labeled ALI+21d)
C[C@H](NC(=O)Cc1cc(F)cc(F)c1)C(=O)NC(C(=O)OC(C)(C)C)c1ccccc1 (stereo partly drawn) [DAPT]	significantly increased their proportion of multiciliated cell numbers; also recorded: increasing the percentage of MCCs	reduction in the proportion of mucous cells; also recorded: decreasing the percentage of mucin positive secretory cells	increasing the percentage of MCCs; also recorded: induced multiciliated cell formation to levels comparable to healthy epithelia	decreasing the percentage of mucin positive secretory cells	increase the percentage of MCCs in controls	increase the percentage off MCCs in controls	induces ciliated cell formation via both apical and basal application; also recorded: induces multiciliated cell formation via both apical and basal application	significant increases	approximately double the number of multiciliated cells	increased MCC cell numbers; also recorded: increased multiciliated cell numbers	significant increase in the proportion of multiciliated cells	induces the formation of additional multiciliated cells in mature cultures	induces the formation of additional multiciliated cells in mature cultures; also recorded: robust induction of multiciliated cell formation	had no effect on differentiation; also recorded: no detrimental effect on multiciliated cells or overall epithelial structure	not sufficient to induce extra multiciliated cell formation	–	–	–
O=C(O)CC[C@H]1CC[C@@](c2cc(F)ccc2F)(S(=O)(=O)c2ccc(Cl)cc2)CC1 [MK-0752]	–	–	–	–	–	–	–	–	–	–	–	–	–	–	–	effective in blocking Notch signaling, driving differentiation towards MCCs	disrupted epithelial structure	induced multiciliated cell formation; also recorded: able to induce the formation of extra multiciliated cells
